Experimental data reported in patent publication US20240132518A1, “CEPHALOSPORIN ANTIBACTERIAL COMPOUND AND PREPARATION METHOD THEREFOR” (priority 2021, published 2024).
In brackets after ≈: the same amount, converted by molar mass. Read-outs that look alike come from different tables or passages of the source.

Tests used:
[1] = Pharmacokinetic study in ICR mice; type: in vivo; settings: plasma; for AUC(0-inf) / AUC(0-t) / Cmax / Tmax / half-life: both sexes, mouse, sc
Protocol: The formulation for administration was prepared on ice. A proper amount of the test compound was precisely weighed out, and a 90% volume of normal saline was slowly added. The mixture was ultrasonically stirred in an ice-water bath until no large pieces existed. After the mixture was well mixed, a 1 M NaOH solution was added in small portions using a pipette.
• Species and strain: ICR mice • Animal grade: SPF • Animal source: Medicilon: 999M-018
Administration by subcutaneous injection: 3 mice/sex/time point; blood samples were collected at 9 time points: 0.083 h, 0.25 h, 0.5 h, 1 h, 2 h, 4 h, 6 h, 8 h and 24 h after administration. The collected blood samples were placed in EDTA-K2 anticoagulation blood collection tubes. The collected whole blood was placed on ice and centrifuged at 6800 g at 2-8° C. for 6 min to separate plasma within 1 h. After the centrifugation, the plasma was transferred to a centrifuge tube to which a plasma stabilizer had been added in advance (plasma:concentrated phosphoric acid=100:0.2; for example, 1 μL of 10% concentrated phosphoric acid was added to 50 μL of plasma). All the animals were subjected to careful clinical observation before administration and at each of the blood collection time points after administration, and the adverse reaction symptoms in the animals were recorded.

[2] = system: Carbapenem-resistant Enterobacteriaceae (CRE, Klebsiella pneumoniae); assay: Antibacterial MIC assay (ID-CAMHB), carbapenem-resistant Enterobacteriaceae; type: cell-based
Protocol: (§1) 1. The test compounds were dissolved in sterile normal saline, vortexed for uniformly mixing, and diluted in a 2-fold dilution with the sterile normal saline (11 concentration points in total). The test concentration range was 32-0.031 μg/mL, and two duplicate wells were set for each concentration. Additional wells without drug dosing were set as growth controls.
(§2) 2. 4 μL of the diluent was added to 196 μL of the bacterial suspension in a 96-well plate (the bacterial count in the bacterial suspension was 2-8×10^5 colony forming units/mL).
(§3) The minimum inhibitory concentration (MIC) assay was performed with reference to the Clinical and Laboratory Standards Institute (CLSI) guidelines.

[3] = system: Control strain (Escherichia coli) ATCC 25922; assay: Antibacterial MIC assay (ID-CAMHB), control strain Escherichia coli; type: cell-based; settings: ATCC25922, ID-CAMHB, control strain ATCC 25922, read-out: MIC
Protocol: as §1, §2, §3

[4] = system: Carbapenem-resistant Acinetobacter baumannii (CRAB); assay: Antibacterial MIC assay (ID-CAMHB), carbapenem-resistant Acinetobacter baumannii; type: cell-based
Protocol: as §1, §2, §3

[5] = system: Control strain (Pseudomonas aeruginosa) ATCC 27853; assay: Antibacterial MIC assay (ID-CAMHB), control strain Pseudomonas aeruginosa; type: cell-based; settings: ATCC27853, ID-CAMHB, control strain ATCC 27853, read-out: MIC
Protocol: as §1, §2, §3

[6] = Pharmacokinetic study in cynomolgus monkeys; type: in vivo; settings: cynomolgus monkey, plasma, 10 mg/kg single intravenous infusion, individual animals
Protocol: An appropriate amount of a test compound was weighed precisely and added to a container, and 0.9% sodium chloride injection and 0.2 M NaOH solution were added thereto in an ice bath until the test compound was completely dissolved, so that a sample solution at a concentration of 2 mg/mL was obtained followed by storage at 2-8° C. for later use.
• Species and strain: cynomolgus monkey • Animal grade: general grade • Animal source: Guangxi Xiongsen Primate Experimental Animal Breeding Development Co., Ltd. • Number of the using of laboratory animal: SYXK (Su) 2019-0012
6 cynomolgus monkeys (half male and half female) were selected and randomly divided into 3 groups with 1 animal/sex in each group. The cynomolgus monkeys were administered with the test sample at a dose of 10 mg/kg by the single intravenous infusion. Blood samples were collected from each group of animals at the following time points: before administration, and 5 min, 15 min, 0.5 h, 1 h, 2 h, 4 h, 6 h, and 8 h after administration. In the test, the concentration of each test compound in the plasma of the cynomolgus monkey was detected by the LC-MS/MS method, and the lower limits of quantification of the analysis methods for the plasma samples were all 1 μg/mL. The plasma concentration data were analyzed by the non-compartmental analysis (NCA) of the analysis software for pharmacokinetic data, WinNonlin, pharmacokinetic parameters were calculated, and pharmacokinetic characteristics of the test compounds in cynomolgus monkeys after administration were investigated, with the results shown in the following table.

[7] = system: Carbapenem-resistant Pseudomonas aeruginosa (CRPA); assay: Antibacterial MIC assay (ID-CAMHB), carbapenem-resistant Pseudomonas aeruginosa; type: cell-based
Protocol: as §1, §2, §3

[8] = 10 mg/kg subcutaneous injection
[9] = 100 mg/kg subcutaneous injection
[10] = both sexes, cynomolgus, iv, 10 mg/kg

Compound: CC(C)(O/N=C(\C(=O)N[C@@H]1C(=O)N2C(C(=O)[O-])=C(C[N+]3(CCCN(CCCNC(=O)c4ccc(O)c(O)c4Cl)C(=O)c4ccc(O)c(O)c4Cl)CCCC3)CS[C@H]12)c1csc(N)n1)C(=O)O [Compound 3]
- AUMC0-inf [1, 8]: 86.9 h · h · ug · mL^−1
- AUMC0-t [1, 8]: 80.3 h · h · ug · mL^−1
- Kel [1, 8]: 1.04 h⁻¹
- MRTPO [1, 8]: 47.4 min
- AUMC0-inf [1, 9]: 880.4 h · h · ug · mL^−1
- AUMC0-t [1, 9]: 871.4 h · h · ug · mL^−1
- Kel [1, 9]: 1.64 h⁻¹
- MRTPO [1, 9]: 47.8 min
- AUC(0-inf) [1, 8]: 110 µg·h/mL
- AUC(0-t) [1, 8]: 109 µg·h/mL
- Cmax [1, 8]: 114 µg/mL
- Tmax [1, 8]: 15 min
- half-life [1, 8]: 39.9 min
- AUC(0-inf) [1, 9]: 1100 µg·h/mL
- AUC(0-t) [1, 9]: 1100 µg·h/mL
- Cmax [1, 9]: 936 µg/mL
- Tmax [1, 9]: 30 min
- half-life [1, 9]: 25.3 min
- MIC ([2]; strain FDA-CDC AR-BANK#0361, AMR gene TEM-1, SHV-12, KPC-2): 0.5 µg/mL (≈ 0.503 µM)
- MIC ([2]; strain FDA-CDC AR-BANK#0362, AMR gene TEM-1, SHV-11, KPC-2): 0.125 µg/mL (≈ 0.126 µM)
- MIC ([2]; strain FDA-CDC AR-BANK#0363, AMR gene TEM-1, SHV-12, KPC-2): 0.125 µg/mL (≈ 0.126 µM)
- MIC ([2]; strain FDA-CDC AR-BANK#0438, AMR gene aph(3′)-Ia, dfrA12, KPC-3, OmpK35, oqxA, oqxB, SHV-11): 0.25 µg/mL (≈ 0.252 µM)
- MIC ([2]; strain FDA-CDC AR-BANK#0453, AMR gene KPC-3, OmpK35, oqxA, oqxB, SHV-11, TEM-1B): 0.5 µg/mL (≈ 0.503 µM)
- MIC [3]: 0.0625 µg/mL (≈ 0.0629 µM)
- MIC ([4]; strain FDA-CDC AR-BANK#0036, AMR gene strB, OXA-65, OXA-24, strA, sul2, read-out: MIC): 0.25 µg/mL (≈ 0.252 µM)
- MIC ([4]; strain FDA-CDC AR-BANK#0052, AMR gene OXA-58, OXA-100, sul2): 0.125 µg/mL (≈ 0.126 µM)
- MIC ([4]; strain FDA-CDC AR-BANK#0063, AMR gene OXA-23, OXA-65, OXA-24, sul2, read-out: MIC): > 32 µg/mL
- MIC ([4]; strain FDA-CDC AR-BANK#0070, AMR gene OXA-58, OXA-100, sul2): 0.125 µg/mL (≈ 0.126 µM)
- MIC ([4]; strain FDA-CDC AR-BANK#0101, AMR gene strB, OXA-65, OXA-24, strA, sul2, read-out: MIC): 0.5 µg/mL (≈ 0.503 µM)
- MIC [5]: 0.25 µg/mL (≈ 0.252 µM)
- AUC(0-inf) [6, 10]: 166 µg·h/mL
- AUC(0-t) [6, 10]: 149 µg·h/mL
- clearance [6, 10]: 1 mL/min/kg
- half-life [6, 10]: 154 min
- Cmax ([6]; both sexes, cynomolgus, iv, 10 mg/kg, read-out: Cmax): 55.2 µg/mL
- MRT ([6]; both sexes, cynomolgus, iv, 10 mg/kg, read-out: MRT): 150 min
- Vd ([6]; both sexes, cynomolgus, iv, 10 mg/kg, read-out: Vd): 0.223 L/kg
- Tmax ([6]; both sexes): 4.8 min
- AUC last ([6]; 10 mg/kg): 140.08 µg·h/mL
- AUCinf ([6]; 10 mg/kg): 153.20 µg·h/mL
- CL ([6]; 10 mg/kg): 1.088 mL/min/kg
- Cmax ([6]; 10 mg/kg): 48.60 µg/mL
- MRT ([6]; 10 mg/kg): 149 min
- Vd ([6]; 10 mg/kg): 0.21311 L/kg
- t1/2 ([6]; 10 mg/kg): 136 min
- MIC ([7]; strain FDA-CDC AR-BANK#0439, AMR gene aac(6′)-Il, aadA1b, BCR1, IMP-18, OXA-50): 0.125 µg/mL (≈ 0.126 µM)
- MIC ([7]; strain FDA-CDC AR-BANK#0441, AMR gene KPC-2, read-out: MIC): 2 µg/mL (≈ 2.01 µM)
- MIC ([7]; strain FDA-CDC AR-BANK#0444, AMR gene aac(6′)-Il, dfrB5, OXA-4, tet(G), VIM-2, read-out: MIC): 2 µg/mL (≈ 2.01 µM)
- MIC ([7]; strain FDA-CDC AR-BANK#0457, AMR gene aadA6, VIM-2, read-out: MIC): 0.25 µg/mL (≈ 0.252 µM)
